Activity calls are given as the source filed them. The rule behind the calls is not given here.
Tested on: MOLM-13
Test: Induction of apoptosis in human MOLM13 cells assessed as caspase-3 cleavage up to 10 uM after 48 hrs by immunoblot method
Assay type: functional, cell-based

Which Activity does the source give for `C=CC(=O)Nc1cc(-n2c(=O)ccc3cnc4ccc(-n5cccn5)cc4c32)ccc1C` here?
Its Activity is “Active”.
